Assay results taken from publication PMC5913645, “Methyl phenlactonoates are efficient strigolactone analogs with simple structure” (Journal of Experimental Botany, 2017).
“Also recorded” adds a separate entry of the source.

Key:
[1] = system: rice d3 mutant; experiment: Rice micro tillering bioassay, d3 mutant; assay type: in vivo; conditions: 2.5 μM, hydroponic culture; average of four tillers per plant in treated and untreated samples
Description: Rice seeds (WT, d3, d10) were surface-sterilized by washing with 70% ethanol for 1 min and then with 2.5% sodium hypochlorite for 15 min. Seeds were then rinsed thoroughly with sterile MilliQ water and incubated in water for 2 d at 30 °C in the dark. Pre-germinated seeds were transferred to filter papers containing half-strength MS medium in 90 mm Petri dishes and incubated at 30 °C under fluorescent white light (130–180 μmol m^−2 s^−1) for 1 week. Seven-day-old seedlings were transferred to 50 ml falcon tubes (one seedling per tube) containing modified half-strength Hoagland nutrient solution and grown in greenhouse. Plants were treated with MPs at 2.5 μM to 2.5 × 10^–7 μM, using GR24 as positive control. The compounds were applied six times, twice a week. Number of tillers per plant, plant height and fresh biomass were measured at final harvest.

[2] = system: rice leaf segments; experiment: Dark-induced leaf senescence; parameters: species or system O. sativa, var. Shiokari; conditions: for transcript level of senescence-associated gene Osl20 / transcript level of senescence-associated gene Osl295: after 5 d of treatment; for change in color of leaf segments, earlier than the control / chlorophyll content of leaf segments / ion leakage of leaf segments compared with the control: dark; for change in color of leaf segments, earlier than the control: 30 °C, change on the third day after treatment; for chlorophyll content of leaf segments: on the third day; for ion leakage of leaf segments compared with the control: sixth and seventh day, no difference in the first 5 d
Description: One-week-old rice (O. sativa, var. Shiokari) seedlings were established as mentioned above. Uniform seedlings were transferred to 50 ml tubes containing half-strength Hoagland nutrient solution for 7 d and grown in an incubator under white fluorescent light (130–180 μmol m^−2 s^−1) with 16 h/8 h (L/D) at 28 °C for 1 week. Leaf segments of 2 cm were cut from middle part of third leaves of rice plants. Each segment was put in a well (in 24-well plates) containing 2 ml of 2.5 mM MES buffer with 0.05% Tween-20, and incubated at 30 °C in the dark for 7 d. After application of MPs, color change, chlorophyll content, ion leakage, and gene expression were monitored daily for 7 d.

[3] = system: artificially infested soil and pearl millet as a host; experiment: Trial in Burkina Faso, boxes with artificially infested soil; assay type: in vivo; conditions: 1 × 1 m^2 wooden boxes, to be published
Text: This activity was around 17 times weaker than that of GR24, pointing to MP1 as a suitable candidate for the suicidal germination approach. Very recently, we have evaluated the activity of MP1 in a trial conducted in Burkina Faso, in which we used 1 × 1 m^2 wooden boxes filled with artificially infested soil and pearl millet as a host. […] Apart from these three compounds, we observed lower germination activity with P. ramosa seeds than with those of S. hermonthica.

[4] = system: P. ramosa seeds; experiment: P. ramosa seed germination bioassay; assay type: in vivo, Phelipanche ramosa; conditions: 1.0 μM
Description: Parasitic weed seeds’ (S. hermonthica and P. ramosa) germination activity was studied as described previously ([Jamil et al., 2012]). Six pre-conditioned seed discs were placed in a 90 mm Petri dish containing a filter paper ring wetted with 0.9 ml sterile MilliQ water. Then 50 μl of SL analog solution (10^–5–10^–12 M) was applied on each of the six discs, for each concentration. GR24 solutions with equal concentrations and sterile MilliQ water were included as a positive and negative control, respectively. After application, seeds of S. hermonthica and P. ramosa were incubated in dark at 30 °C for 2 d and at 25 °C for 4 d, respectively. Germination (seeds with radicle emerging through the seed coat) was scored under a binocular microscope, and germination rate (%) was calculated.

[5] = system: Arabidopsis seedlings; experiment: Arabidopsis hypocotyl elongation assay; assay type: in vivo; conditions: 1.0 μM, continuous red light
Description: Sterilized Arabidopsis seeds were sown on half-strength MS (with 0.5% sucrose+1% agar, 0.5 g l^−1 MES, pH 5.7) plates supplemented with MPs or GR24 (at 1.0 μM). Plates were stored at 4 °C in darkness for 3 d. To initiate germination, plates were exposed to continuous white light for 24 h, then transferred to continuous monochromatic red light (20 μmol m^−2 s^−1, 22 °C) conditions for another 4 d. For hypocotyl length measurement, at least 30 seedlings were measured using the freely available ImageJ software (http://rsbweb.nih.gov/ij/) after taking digital photographs. A monochromatic red light source was applied as described previously ([Wu and Yang, 2010]). Light flow rates were measured using a Li250 quantum photometer (Li-Cor, Lincoln, NE, USA).

CC1=CC(OC=C2C(=O)OC3c4ccccc4CC23)OC1=O (centres unmarked) [GR24, reference compound]
high-tillering phenotype of SL-insensitive d3 mutant [1]: neither MPs nor GR24 could restore the high-tillering phenotype
transcript level of senescence-associated gene Osl20 [2]: striking increase
transcript level of senescence-associated gene Osl295 [2]: striking increase
change in color of leaf segments, earlier than the control [2]: about 2 d
chlorophyll content of leaf segments [2]: clear reduction
ion leakage of leaf segments compared with the control [2]: striking increase

COC(=O)/C(=C/OC1C=C(C)C(=O)O1)c1ccc([N+](=O)[O-])cc1 (centres unmarked) [MP1, (E)-methyl 3-(4-methyl-5-oxo-2,5-dihydrofuran-2-yloxy)-2-(4-nitrophenyl)acrylate]
germination activity in soil box trial [3]: significantly higher germination activity than GR24
P. ramosa germination activity [4]: much higher activity; also recorded: quite similar to that of GR24

COC(=O)/C(=C/OC1C=C(C)C(=O)O1)c1ccccc1 (centres unmarked) [MP3, (E)-methyl 3-(4-methyl-5-oxo-2,5-dihydrofuran-2-yloxy)-2-phenylacrylate]
transcript level of senescence-associated gene Osl20 [2]: striking increase in their transcripts, which was more pronounced
transcript level of senescence-associated gene Osl295 [2]: striking increase in their transcripts, which was more pronounced
change in color of leaf segments, earlier than the control [2]: about 2 d
chlorophyll content of leaf segments [2]: clear reduction
ion leakage of leaf segments compared with the control [2]: striking increase

COC(=O)/C(=C/OC1C=C(C)C(=O)O1)c1ccc(Cl)cc1 (centres unmarked) [MP7]
inhibition of hypocotyl growth [5]: stronger inhibitory effect than GR24
